From patent US7687546B2, “Quaternary ammonium compound, process for producing the same, therapeutic agent for cerebrovascular disorder, and therapeutic agent for heart disease” (Activus Pharma Co., Ltd., priority 2004, dated 2010)
Read-outs that look alike come from different tables or passages of the source.

Experiments:
[1] = tested on: middle cerebral artery occlusion and reperfusion model; experiment: Cerebral infarction model: middle cerebral artery occlusion and reperfusion (infarct area, neurological symptoms, motor function); assay type: in vivo, rats (Crj: Wistar strain); parameters: Improvement of neurological symptoms* (total score): scale not given here; details: rats, average of 10 animals; for Improvement of neurological symptoms* (total score) / Improvement of motor function (time stayed on rotor rod: seconds): single i.v. dose 3 mg/kg; for Improvement of neurological symptoms* (total score): 24 hours after occlusion, total score per Table 4, smaller = greater effect; for Improvement of motor function (time stayed on rotor rod: seconds): rotor rod 14 rotations per minute, maximum 1 minute; for Cerebral infarction reduction rate (%): single intravenous dose 3 mg/kg immediately before reperfusion, vs physiological saline group, bigger = greater effect
Experimental: In this example, a cerebral infarction model was prepared using rats in which reperfusion injury was induced by ischemia and then reperfusion of the middle cerebral artery using the obturator method. The efficacy of compounds of the present invention following single-dose intravenous administration at dose of 3 mg/kg was evaluated in terms of infarct area, neurological symptoms and motor function.
In addition, Edaravone (trade name, Mitsubishi Pharma Corporation) was used as a reference compound. The compounds of the present invention were stored in a refrigerator under protection from light, while Edaravone (trade name) was stored at room temperature under protection from light.
Compounds of present invention: 2 mL of physiological saline was added directly to tube containing 3 mg aliquots of a compound of the present invention to dissolve and prepare solutions having a concentration of 3 mg/2 mL. These samples were prepared at the time of use.
Edaravone: Since Edaravone is an injectable solution having a concentration of 30 mg/20 mL, the required amounts were divided up and used.
Rats: Crj: Wistar strain, males, age 7 weeks (Charles River Laboratories Japan, Inc.)
The test compounds were administered in a single dose into the tail vein using a 1 mL syringe and 27 G injection needle immediately before the reperfusion.
The rats were anesthetized by intraperitoneal administration of sodium pentobarbital at dose of 40 mg/kg (Nembutal (trade name), Dainippon Pharmaceutical Co., Ltd.), and a middle cerebral artery occlusion and reperfusion model was prepared in accordance with the method of Koizumi et al. (Non-Patent Document 2). Namely, the animals were warmed to 37° C. and held in the dorsal position while breathing spontaneously. A midline cervical incision was made, and then the right external carotid artery and right internal carotid artery were separated without damaging the vagus nerve. The right common carotid artery and right external carotid artery were ligated, and a suture was attached to the origin of the internal carotid artery in preparation for ligation and maintenance of occlusion following insertion of an obturator into the internal carotid artery. Moreover, a small incision was made in the right common carotid artery, an obturator provided with an approximately 17 mm silicon-coated suture was inserted into the internal carotid artery, and the internal carotid artery was ligated. Two hours after ligation, the obturator was removed under unanesthesia to reperfuse. Furthermore, flexion of the contralateral forelimb was confirmed 30 minutes after occlusion of the middle cerebral artery.
The following neurological symptoms were evaluated 24 hours after occlusion of the middle cerebral artery according to the evaluation method of Petullo et al. (Non-Patent Document 3). Neurological symptoms consisted of flexion of the forelimbs, torso twisting, resistance when pushing on the back of the right or left shoulder (Lateral push), circling, return of the hindlimb to the floor when lifted from the floor (Hindlimb placement), behavior when the head is faced downward on an angle (Inverted angle board) and a locomotor activity test.
Flexion of the forelimbs: flexion of the forelimbs was observed when the animals were lifted up by the tail.
Torso twisting: Torso twisting was observed when the animals were lifted up by the tail.
Lateral push: Resistance was observed when pushing on the back of the right or left shoulder.
Hindlimb placement: The animals were observed as to whether or not the hindlimb immediately returns to the floor after being lifted from the floor when placed on a horizontal floor.
locomotor activity: locomotor activity was observed when the animals were placed in a polycarbonate cage.
The aforementioned tests were scored based on the criteria described in the following documents, followed by calculation of total scores (see Table 4 “Neurological Symptom Evaluation Criteria and Scores”). […]

[2] = tested on: ouabain-induced arrhythmia model; experiment: Ouabain-induced arrhythmia model in guinea pigs; assay type: in vivo, guinea pigs (Hartley strain); details: dose 3 mg/kg i.v. immediately before ouabain infusion 3 μg/0.1 ml/min
Excerpt: After guinea pigs (Hartley strain, age 6 weeks) were anesthetized with urethane, induction electrodes were attached to the hind limbs and fore limbs, and standard 2-lead electrocardiograms were monitored with an animal electrocardiogram analysis system (ECG-01, Japan Energy). After confirming that the waveforms of the electrocardiogram and heart rate were within the normal range, an incision was made in the epidermis of the neck followed by inserting a breathing tube into the trachea and cannulating a polyethylene tube into the left external jugular vein and left common carotid artery.
Immediately after administering a compound of the present invention dissolved in a physiological saline solution into the right external jugular vein, ouabain was continuously infused at 3 μg/0.1 ml/min through the cannulated polyethylene tube into the left external jugular vein using a syringe pump (Atom Syringe Pump 1235 (trade name), Atom Medical Corporation).
In addition, the polyethylene tube cannulated in the left common carotid artery was connected to a pressure transducer (P23XL, Gould Electronics), and fed to a pressure processor signal conditioner (TA-11, Gould Electronics) to record blood pressure and heart rate on a thermal plate recorder.
The results were assessed by comparing the dose (μg/kg) of ouabain administered until the appearance of arrhythmia and occurrence of cardiac arrest (arrhythmia is not induced even if a large dose of ouabain is administered if antiarrhythmic effects are high). Furthermore, a solvent dose group (administered only physiological saline in an amount equal to that of the test drug groups), and a positive control group administered a typical antiarrhythmic disopyramide phosphate (physiological saline solution), were also provided.

[3] = tested on: model of myocardial ischemia reperfusion injury; experiment: Model of myocardial ischemia-reperfusion injury in dogs; assay type: in vivo; details: 3 mg/kg into the femoral vein 10 minutes before 20 minutes coronary occlusion, then reperfusion
Experimental: In order to confirm the efficacy of compounds of the present invention on myocardial infarction and arrhythmia caused by myocardial infarction, a pharmacological study was conducted using a model of myocardial ischemia reperfusion injury in dogs for the compounds used in Example 1.
Dogs having body weights of approximately 10 kg were anesthetized with pentobarbital (trade name) (30 mg/ml/kg) followed by shaving the surgical site after starting artificial respiration. The femoral vein and femoral artery were separated followed by cannulation. The femoral vein was used as the administration route for the test substances, while the femoral artery was used to measure blood pressure.
Next, after opening the left chest, making an incision in the pericardium and exposing the left ventricle, the left coronary artery was separated. A silk suture was passed through the coronary artery to occlude, followed by the attachment of an electromagnetic flow meter probe for measuring blood flow.
In addition, a pair of ultrasound crystal probes was fixed in position to measure changes in ventricular wall length as a indicator of myocardial contractile force, and indwelling needle was installed for measuring left intraventricular pressure. Compounds of the present invention were administered into the femoral vein at 3 mg/kg (15% physiological saline solution) followed 10 minutes later by occluding the coronary artery for 20 minutes, and subsequently reperfusing the coronary artery. Myocardial contraction following ischemia-reperfusion was compared for each group based on a value of 100 for myocardial contraction prior to ischemic reperfusion. In addition, comparisons were also made with a solvent control group administered only physiological saline.

[4] = tested on: model of myocardial ischemia-reperfusion injury; experiment: Model of myocardial ischemia-reperfusion injury in rats; assay type: in vivo; details: 3 mg/kg i.v. 5 minutes before 5 minutes coronary ligation, 8 rats per group; for Incidence of Ventricular Fibrillation (%) / Incidence of Ventricular Tachycardia (%): monitored 5 minutes after reperfusion; for Mortality Rate (%): then reperfusion
guinea pigs = details: guinea pig, in vivo

Row | Compound | Improvement of neurological symptoms* (total score) [1] | Improvement of motor function (time stayed on rotor rod: seconds) [1] [s] | Cerebral infarction reduction rate (%) [1] [%] | Ouabain (μg/kg) administered until Cardiac arrest [2] [µg/kg] | Ouabain (μg/kg) administered until appearance of Arrhythmia [2] [µg/kg] | Myocardial Contraction (%) (Based on a value of 100% for prior to ischemia-reperfusion) [3] | Incidence of Ventricular Fibrillation (%) [4] [%] | Incidence of Ventricular Tachycardia (%) [4] [%] | Mortality Rate (%) [4] [%] | Occurrence of Arrhythmia (guinea pigs; 3 mg/kg) | Occurrence of cardiac arrest (guinea pigs; 3 mg/kg) | Occurrence of Arrhythmia (guinea pigs; 10 mg/kg) | Occurrence of cardiac arrest (guinea pigs; 10 mg/kg)
1 | C[N+](C)(C)CCOc1ccc(O)c(S(=O)(=O)[O-])c1 [Compound 66] | 6.35 | 49.6 | 47.9 | 237 | 168 | 80 | 12.5 | 62.5 | 12.5 | No | No | No | No
2 | CCN(CC)CC(=O)Nc1c(C)cccc1C [Lidocaine, lidocaine, reference compound] |  |  |  |  |  |  | 12.5 | 62.5 | 12.5 |  |  |  | 
3 | C[N+](C)(C)CCOc1ccc(O)c(O)c1C(=O)[O-] [Compound 33] | 5.90 | 52.1 | 52.6 | 239 | 171 | 82 | 12.5 | 50.0 | 0 | No | No | No | No
4 | C[N+](C)(C)CCOc1ccc(O)c(C(=O)[O-])c1 [Compound 9] | 5.95 | 51.6 | 51.5 | 245 | 170 | 78 | 25.0 | 75.0 | 12.5 | No | No | No | No
5 | C[N+](C)(C)CCOc1ccc(C(=O)[O-])c(O)c1O [Compound 32] | 5.65 | 53.5 | 55.4 | 243 | 176 | 79 | 12.5 | 50.0 | 12.5 | No | No | No | No
6 | CC[N+](CC)(CC)CCOc1ccc(S(=O)(=O)[O-])c(O)c1 [Compound 71] | 6.30 | 48.8 | 46.3 | 239 | 171 | 72 | 12.5 | 62.5 | 0 | No | No | No | No
7 | COc1ccc(C(=O)[O-])cc1OCC[N+](C)(C)C [Compound 39] | 6.80 | 42.4 | 37.8 | 229 | 165 | 74 | 12.5 | 62.5 | 12.5 | No | No | No | No
8 | C[N+](C)(C)CCCOc1cc(S(=O)(=O)[O-])ccc1O [Compound 77] | 6.40 | 49.3 | 47.3 | 227 | 167 | 75 | 12.5 | 75.0 | 12.5 | No | No | No | No
9 | CC1=NN(c2ccccc2)C(=O)C1 [Edaravone, reference compound] | 6.10 | 42.6 | 37.3 |  |  |  |  |  |  |  |  |  | 
